Results from ChEMBL document CHEMBL1255458, “Worldwide experience with the use of doripenem against extended-spectrum-beta-lactamase-producing and ciprofloxacin-resistant Enterobacteriaceae: analysis of six phase 3 clinical studies” (2010).
Values after ≈ are worked out from the molar mass of the structure shown.

Columns and labels:
Enterobacteriaceae [1] = assay: Antibacterial activity against extended spectrum beta-lactamase-producing Enterobacteriaceae clinical isolates isolated from patient with complicated intra-abdominal infection assessed as cure rate at test-of-cure visit by mMITT analysis; type: functional
Enterobacteriaceae [2] = assay: Antibacterial activity against Enterobacteriaceae clinical isolates isolated from patient with complicated intra-abdominal infection assessed as cure rate at test-of-cure visit; type: functional
Enterobacteriaceae [3] = assay: Antibacterial activity against ciprofloxacin-resistant Enterobacteriaceae clinical isolates isolated from patient with complicated intra-abdominal infection assessed as cure rate at test-of-cure visit by mMITT analysis; type: functional
Enterobacteriaceae [4] = assay: Antibacterial activity against Enterobacteriaceae clinical isolates isolated from patient with complicated intra-abdominal infection assessed as cure rate at test-of-cure visit by mMITT analysis; type: functional
Enterobacteriaceae [5] = assay: Antibacterial activity against ciprofloxacin-resistant Enterobacteriaceae clinical isolates by broth microdilution method; type: functional
Enterobacteriaceae [6] = assay: Antibacterial activity against extended spectrum beta-lactamase-producing Enterobacteriaceae clinical isolates isolated from patient with complicated intra-abdominal infection assessed as cure rate at test-of-cure visit; type: functional
Enterobacteriaceae [7] = assay: Antibacterial activity against ciprofloxacin-resistant Enterobacteriaceae clinical isolates isolated from patient with complicated intra-abdominal infection assessed as cure rate at test-of-cure visit; type: functional
Klebsiella pneumoniae = assay: Antibacterial activity against […] Klebsiella pneumoniae by broth microdilution method; type: functional
Enterobacteriaceae [8] = assay: Antibacterial activity against extended spectrum beta-lactamase-producing Enterobacteriaceae clinical isolates by broth microdilution method; type: functional
Enterobacteriaceae [9] = assay: Antibacterial activity against Enterobacteriaceae clinical isolates isolated from patient with nosocomial pneumonia assessed as cure rate at test-of-cure visit by mMITT analysis; type: functional
Enterobacteriaceae [10] = assay: Antibacterial activity against extended spectrum beta-lactamase-producing Enterobacteriaceae clinical isolates isolated from patient with nosocomial pneumonia assessed as cure rate at test-of-cure visit; type: functional
Enterobacteriaceae [11] = assay: Antibacterial activity against ciprofloxacin-resistant Enterobacteriaceae clinical isolates isolated from patient with nosocomial pneumonia assessed as cure rate at test-of-cure visit by mMITT analysis; type: functional
Enterobacteriaceae [12] = assay: Antibacterial activity against extended spectrum beta-lactamase-producing Enterobacteriaceae clinical isolates isolated from patient with nosocomial pneumonia assessed as cure rate at test-of-cure visit by mMITT analysis; type: functional
Enterobacteriaceae [13] = assay: Antibacterial activity against Enterobacteriaceae clinical isolates isolated from patient with nosocomial pneumonia assessed as cure rate at test-of-cure visit; type: functional
Enterobacteriaceae [14] = assay: Antibacterial activity against Enterobacteriaceae by broth microdilution method; type: functional
Enterobacteriaceae [15] = assay: Antibacterial activity against ciprofloxacin-resistant Enterobacteriaceae clinical isolates isolated from patient with complicated urinary tract infection assessed as cure rate at test-of-cure visit by mMITT analysis; type: functional, Urine
Enterobacteriaceae [16] = assay: Antibacterial activity against extended spectrum beta-lactamase-producing Enterobacteriaceae clinical isolates isolated from patient with complicated urinary tract infection assessed as cure rate at test-of-cure visit; type: functional, Urine
Enterobacteriaceae [17] = assay: Antibacterial activity against Enterobacteriaceae clinical isolates isolated from patient with complicated urinary tract infection assessed as cure rate at test-of-cure visit; type: functional, Urine
Enterobacteriaceae [18] = assay: Antibacterial activity against extended spectrum beta-lactamase-producing Enterobacteriaceae clinical isolates isolated from patient with complicated urinary tract infection assessed as cure rate at test-of-cure visit by mMITT analysis; type: functional, Urine
Enterobacteriaceae [19] = assay: Antibacterial activity against ciprofloxacin-resistant Enterobacteriaceae clinical isolates isolated from patient with complicated urinary tract infection assessed as cure rate at test-of-cure visit; type: functional, Urine
Enterobacteriaceae [20] = assay: Antibacterial activity against Enterobacteriaceae clinical isolates isolated from patient with complicated urinary tract infection assessed as cure rate at test-of-cure visit by mMITT analysis; type: functional, Urine
Enterobacteriaceae [21] = assay: Antibacterial activity against extended spectrum beta-lactamase-producing Enterobacteriaceae clinical isolates isolated from patient with urinary tract infection assessed as cure rate at test-of-cure visit; type: functional, Urine
Enterobacteriaceae [22] = assay: Antibacterial activity against Enterobacteriaceae clinical isolates isolated from patient with urinary tract infection assessed as cure rate at test-of-cure visit; type: functional, Urine
Enterobacteriaceae [23] = assay: Antibacterial activity against Enterobacteriaceae clinical isolates isolated from patient with urinary tract infection assessed as cure rate at test-of-cure visit by mMITT analysis; type: functional, Urine
Enterobacteriaceae [24] = assay: Antibacterial activity against ciprofloxacin-resistant Enterobacteriaceae clinical isolates isolated from patient with urinary tract infection assessed as cure rate at test-of-cure visit by mMITT analysis; type: functional, Urine
Enterobacteriaceae [25] = assay: Antibacterial activity against ciprofloxacin-resistant Enterobacteriaceae clinical isolates isolated from patient with nosocomial pneumonia assessed as cure rate at test-of-cure visit; type: functional
Enterobacteriaceae [26] = assay: Antibacterial activity against extended spectrum beta-lactamase-producing Enterobacteriaceae clinical isolates isolated from patient with urinary tract infection assessed as cure rate at test-of-cure visit by mMITT analysis; type: functional, Urine
Enterobacteriaceae [27] = assay: Antibacterial activity against ciprofloxacin-resistant Enterobacteriaceae clinical isolates isolated from patient with urinary tract infection assessed as cure rate at test-of-cure visit; type: functional, Urine

C[C@@H](O)[C@H]1C(=O)N2C(C(=O)O)=C(S[C@@H]3CN[C@H](C(=O)N(C)C)C3)[C@H](C)[C@H]12 [MEROPENEM]
Activity (Enterobacteriaceae [1]): 62.5%
Activity (Enterobacteriaceae [2]): 85%
Activity (Enterobacteriaceae [3]): 81.3%
Activity (Enterobacteriaceae [4]): 77.9%
MIC50 (Enterobacteriaceae [5]): 0.03 µg/mL (≈ 0.0782 µM)
MIC90 (Enterobacteriaceae [5]): 0.25 µg/mL (≈ 0.652 µM)
Activity (Enterobacteriaceae [6]): 100%
Activity (Enterobacteriaceae [7]): 91.7%
MIC50 (Klebsiella pneumoniae): ≤ 0.03 µg/mL
MIC90 (Klebsiella pneumoniae): 0.06 µg/mL (≈ 0.156 µM)
MIC50 (Enterobacteriaceae [8]): ≤ 0.03 µg/mL
MIC90 (Enterobacteriaceae [8]): 0.12 µg/mL (≈ 0.313 µM)

C[C@@H](O)[C@H]1C(=O)N2C(C(=O)O)=C(S[C@@H]3CN[C@H](C(=O)Nc4cccc(C(=O)O)c4)C3)[C@H](C)[C@H]12 [ERTAPENEM]
MIC50 (Enterobacteriaceae [5]): ≤ 0.03 µg/mL
MIC90 (Enterobacteriaceae [5]): 4 µg/mL (≈ 8.41 µM)
MIC50 (Klebsiella pneumoniae): ≤ 0.03 µg/mL
MIC90 (Klebsiella pneumoniae): ≤ 0.03 µg/mL
MIC50 (Enterobacteriaceae [8]): 0.12 µg/mL (≈ 0.252 µM)
MIC90 (Enterobacteriaceae [8]): 1 µg/mL (≈ 2.1 µM)

C[C@@H](O)[C@H]1C(=O)N2C(C(=O)O)=C(SCCNC=N)C[C@H]12 [IMIPENEM ANHYDROUS]
Activity (Enterobacteriaceae [9]): 61.4%
Activity (Enterobacteriaceae [10]): 100%
Activity (Enterobacteriaceae [11]): 83.3%
MIC50 (Enterobacteriaceae [5]): 0.12 µg/mL (≈ 0.401 µM)
MIC90 (Enterobacteriaceae [5]): 1 µg/mL (≈ 3.34 µM)
Activity (Enterobacteriaceae [12]): 100%
Activity (Enterobacteriaceae [13]): 64.4%
MIC50 (Klebsiella pneumoniae): 0.12 µg/mL (≈ 0.401 µM)
MIC90 (Klebsiella pneumoniae): 1 µg/mL (≈ 3.34 µM)
MIC50 (Enterobacteriaceae [8]): 0.12 µg/mL (≈ 0.401 µM)
MIC90 (Enterobacteriaceae [8]): 0.5 µg/mL (≈ 1.67 µM)

C[C@H]1COc2c(N3CCN(C)CC3)c(F)cc3c(=O)c(C(=O)O)cn1c23.C[C@H]1COc2c(N3CCN(C)CC3)c(F)cc3c(=O)c(C(=O)O)cn1c23.O [LEVOFLOXACIN]
MIC50 (Enterobacteriaceae [14]): ≤ 0.03 µg/mL
MIC90 (Enterobacteriaceae [14]): 8 µg/mL
MIC50 (Enterobacteriaceae [5]): 16 µg/mL
MIC90 (Enterobacteriaceae [5]): 64 µg/mL
Activity (Enterobacteriaceae [15]): 23.8%
Activity (Enterobacteriaceae [16]): 20%
Activity (Enterobacteriaceae [17]): 85.4%
Activity (Enterobacteriaceae [18]): 14.3%
Activity (Enterobacteriaceae [19]): 21.9%
Activity (Enterobacteriaceae [20]): 75.2%
MIC50 (Enterobacteriaceae [8]): 8 µg/mL
MIC90 (Enterobacteriaceae [8]): 32 µg/mL

CC(C)(O/N=C(\C(=O)N[C@@H]1C(=O)N2C(C(=O)[O-])=C(C[n+]3ccccc3)CS[C@H]12)c1csc(N)n1)C(=O)O [CEFTAZIDIME]
MIC50 (Enterobacteriaceae [14]): 0.12 µg/mL (≈ 0.22 µM)
MIC90 (Enterobacteriaceae [14]): 0.5 µg/mL (≈ 0.915 µM)
MIC50 (Enterobacteriaceae [5]): 1 µg/mL (≈ 1.83 µM)
MIC90 (Enterobacteriaceae [5]): > 32 µg/mL
MIC50 (Enterobacteriaceae [8]): 32 µg/mL (≈ 58.5 µM)
MIC90 (Enterobacteriaceae [8]): > 32 µg/mL

NCC[C@H](O)C(=O)N[C@@H]1C[C@H](N)[C@@H](O[C@H]2O[C@H](CN)[C@@H](O)[C@H](O)[C@H]2O)[C@H](O)[C@H]1O[C@H]1O[C@H](CO)[C@@H](O)[C@H](N)[C@H]1O [AMIKACIN]
MIC50 (Enterobacteriaceae [14]): 2 µg/mL (≈ 3.42 µM)
MIC90 (Enterobacteriaceae [14]): 8 µg/mL (≈ 13.7 µM)
MIC50 (Enterobacteriaceae [5]): 4 µg/mL (≈ 6.83 µM)
MIC50 (Enterobacteriaceae [8]): 8 µg/mL (≈ 13.7 µM)
MIC90 (Enterobacteriaceae [8]): > 64 µg/mL

C[C@@H](O)[C@H]1C(=O)N2C(C(=O)O)=C(S[C@@H]3CN[C@H](CNS(N)(=O)=O)C3)[C@H](C)[C@H]12 [DORIPENEM]
Activity (Enterobacteriaceae [21]): 72.7%
Activity (Enterobacteriaceae [9]): 59.6%
Activity (Enterobacteriaceae [10]): 75%
Activity (Enterobacteriaceae [1]): 75%
Activity (Enterobacteriaceae [22]): 82.3%
Activity (Enterobacteriaceae [23]): 73.6%
Activity (Enterobacteriaceae [2]): 84.4%
Activity (Enterobacteriaceae [3]): 83.3%
Activity (Enterobacteriaceae [4]): 77.3%
MIC50 (Enterobacteriaceae [5]): 0.03 µg/mL (≈ 0.0713 µM)
MIC90 (Enterobacteriaceae [5]): 0.5 µg/mL (≈ 1.19 µM)
Activity (Enterobacteriaceae [15]): 53.3%
Activity (Enterobacteriaceae [6]): 71.4%
Activity (Enterobacteriaceae [16]): 60%
Activity (Enterobacteriaceae [17]): 83.5%
Activity (Enterobacteriaceae [24]): 61.9%
Activity (Enterobacteriaceae [18]): 50%
Activity (Enterobacteriaceae [12]): 64.3%
Activity (Enterobacteriaceae [25]): 70%
Activity (Enterobacteriaceae [13]): 69.1%
Activity (Enterobacteriaceae [7]): 82.4%
Activity (Enterobacteriaceae [26]): 66.7%
Activity (Enterobacteriaceae [20]): 74.3%
Activity (Enterobacteriaceae [27]): 68.1%
MIC50 (Klebsiella pneumoniae): ≤ 0.03 µg/mL
MIC90 (Klebsiella pneumoniae): 0.12 µg/mL (≈ 0.285 µM)
MIC50 (Enterobacteriaceae [8]): 0.06 µg/mL (≈ 0.143 µM)
MIC90 (Enterobacteriaceae [8]): 0.25 µg/mL (≈ 0.595 µM)
